Reference: US20200054633A1 (priority 2017, published 2020)
Where two headings read alike, the source gives them in different places.

Experiments:
[1] = tested on: acute uncomplicated seasonal influenza A; test: Clinical study: time to resolution of the 7 primary influenza symptoms (Flu-iiQ); details: for Median (95% CI): untitled table, presumably time to symptom resolution
Description: This study followed a randomized, double-blind, placebo-controlled, parallel-group, multicenter design.
Key secondary efficacy variable: Time to resolution of influenza symptoms after initiation of study drug. Resolution of influenza symptoms was defined as the first Flu iiQ™ recording of a successive series of 3 recordings (over 4 scheduled successive analysis time points, 1 missing time point is allowed) in which all symptom scores for each of the 3 assessments were at most mild for all 7 primary influenza symptoms (cough, sore throat, headache, nasal stuffiness, feverishness or chills, muscle or joint pain, and fatigue).

[2] = tested on: acute uncomplicated seasonal influenza A; test: Clinical study: nasal viral load by qRT-PCR (AUC, LS means, time to viral negativity); assay type: in vivo, human; details: for LS Means viral load (qRT-PCR) Day 3 / LS Means viral load (qRT-PCR) Day 4 / LS Means viral load (qRT-PCR) Day 6 / LS Means viral load (qRT-PCR) Day 8: log10 nasal viral load; for LS Means viral load (qRT-PCR) Day 3 / LS Means viral load (qRT-PCR) Day 4 / LS Means viral load (qRT-PCR) Day 6 / LS Means viral load (qRT-PCR) Day 8 / Change in AUC Viral Load (by qRT-PCR) Days 1 to 8 versus placebo / Time to influenza A negativity (qRT-PCR) Acceleration Factor: Full Analysis Set; for Time to influenza A negativity (qRT-PCR) Acceleration Factor: versus placebo, accelerated failure time model
Influenza A = assay type: in vivo, human; details: for Acceleration Factor, time to Influenza A negativity (TCID50), treatment versus placebo: accelerated failure time model, Full Analysis Set

O=C(O)[C@H]1C2CCC(CC2)[C@@H]1Nc1nc(-c2c[nH]c3ncc(F)cc23)ncc1F [Compound (1), Pimodivir]
Median (95% CI) ([1]; Cmpd (1) 300 mg): 99.0 (71.5;
Median (95% CI) ([1]; Cmpd (1) 600 mg): 85.7 (55.3;
increase in time to resolution of the 7 primary influenza symptoms versus placebo ([1]; Compound (1) 300 mg bid, accelerated failure time model): 7%
LS Means viral load (qRT-PCR) Day 3 ([2]; Cmpd (1) 300 mg + OST placebo): 5.2
LS Means viral load (qRT-PCR) Day 4 ([2]; Cmpd (1) 300 mg + OST placebo): 3.9
LS Means viral load (qRT-PCR) Day 6 ([2]; Cmpd (1) 300 mg + OST placebo): 2.5
LS Means viral load (qRT-PCR) Day 8 ([2]; Cmpd (1) 300 mg + OST placebo): 1.4
LS Means viral load (qRT-PCR) Day 3 ([2]; Cmpd (1) 600 mg + OST placebo): 4.9
LS Means viral load (qRT-PCR) Day 4 ([2]; Cmpd (1) 600 mg + OST placebo): 3.8
LS Means viral load (qRT-PCR) Day 6 ([2]; Cmpd (1) 600 mg + OST placebo): 2.5
LS Means viral load (qRT-PCR) Day 8 ([2]; Cmpd (1) 600 mg + OST placebo): 1.0
reduction of time to viral negativity (qRT-PCR) versus placebo ([2]; Compound (1) 300 mg bid): 13%
Change in AUC Viral Load (by qRT-PCR) Days 1 to 8 versus placebo ([2]; Compound (1) 300 mg bid): −3.6 day*log10 copies/mL
reduction of time to viral negativity (qRT-PCR) versus placebo ([2]; Compound (1) 600 mg bid): 18%
Change in AUC Viral Load (by qRT-PCR) Days 1 to 8 versus placebo ([2]; Compound (1) 600 mg bid): −4.5 day*log10 copies/mL
effect on AUC of viral load (by qRT-PCR) over 7 days from start of dosing ([2]; Compound (1) treatment versus placebo): statistically significant and dose-dependent decrease in AUC of viral load
Time to influenza A negativity (qRT-PCR) Acceleration Factor ([2]; Cmpd (1) 300 mg + OST placebo): 0.87
Time to influenza A negativity (qRT-PCR) Acceleration Factor ([2]; Cmpd (1) 600 mg + OST placebo): 0.82
Acceleration Factor, time to Influenza A negativity (TCID50), treatment versus placebo (Influenza A; Cmpd (1) 300 mg + OST placebo): 0.71
Acceleration Factor, time to Influenza A negativity (TCID50), treatment versus placebo (Influenza A; Cmpd (1) 600 mg + OST placebo): 0.72
reduction in time to negative viral load (viral culture) versus placebo (Influenza A; Compound (1) 300 mg bid): 29%
reduction in time to negative viral load (viral culture) versus placebo (Influenza A; Compound (1) 600 mg bid): 28%
